In article PMC8918352, “Structure and activity of the DHNA Coenzyme-A Thioesterase from Staphylococcus aureus providing insights for innovative drug development” (Scientific Reports, 2022):

Columns and labels:
SaDHNA thioesterase = assay: Inhibition of SaDHNA thioesterase activity by peptides; type: biochemical, Staphylococcus aureus; conditions: 100 µM peptide, 10 µM SaDHNA, 50 mM HEPES-K+ pH 7.5, 1 mM DTNB, room temperature, 412 nm; in comparison to control assay without peptides; triplicates
Source text: According to the docking analysis, the protein-peptide complex is mediated mainly through six hydrogen bonds formed between Pep-1 and residues present in the putative active site. The benzoyl ring of the tyrosine of Pep-1 has non-covalent π-stacking interactions with the Try45 benzoyl ring of the SaDHNA structure, as well as with the side chain of Ser55 through a hydrogen bond. The residues important for the substrate binding and activity, Glu31 and Asp16, respectively, are predicted to interact with the amide of the peptide backbone and with the side chain of serine of the peptide via hydrogen bonds as well. […]
(§1) The thioesterase activity of SaDHNA was measured according to a protocol of Rodríguez-Guilbe and co-workers[36]. In a ELISA microplate the formation of 2-nitro-5-thiobenzoate anion (TNB2-) by the reaction of thiolate anion (RS^−) with Ellman′s reagent (DTNB^2−) and one mixed disulphide (R-S-TNB^−) catalysed by purified SaDHNA wild type (WT), D16A and E31N was followed by monitoring the change in absorbance of thionitrobenzoic acid (TNB) at 412 nm (extinction coefficient of 13.600 M^−1 cm^−1) using a TECAN GENios plate reader (XFLUOR4 Version: V 4.40, MTX Lab Systems, Inc, USA). […] In addition, uncatalyzed reaction rates were monitored by the combination of same reagents without the enzyme.

SaDHNA = assay: Intrinsic (tryptophan) fluorescence quenching of SaDHNA by peptides, Stern–Volmer analysis; type: binding, Staphylococcus aureus; conditions: for bimolecular quenching constant (Kq) / shift of SaDHNA emission spectra maximum / fluorescence intensity of SaDHNA: 60 nM SaDHNA; for bimolecular quenching constant (Kq): 100 mM sodium phosphate pH 6.0, 150 mM NaCl, 22 °C, excitation 290 nm, emission 300–420 nm, peptide 60–1000 nM, from second, slower quenching step, five assays; for shift of SaDHNA emission spectra maximum / fluorescence intensity of SaDHNA: peptide up to 1000 nM, pH 6.0, 22 °C; for shift of SaDHNA emission spectra maximum: maximum emission near 340 nm; for quenching mechanism: from Kq above diffusive limit, complex association between SaDHNA and peptides
Protocol: Fluorescence spectroscopy was employed to analyse the inhibition of SaDHNA by the aforementioned peptides. The intrinsic fluorescence quenching was assessed for a gradient concentration of Pep-1 and Pep-2. The emission spectra of SaDHNA in buffer only and SaDHNA quenched with different concentrations of Pep-1 and Pep-2 are shown in Fig. 5a,b, respectively. The amino acid sequence of SaDHNA has three tryptophan residues, W29, W79 and W129 and a corresponding maximum emission near 340 nm. […] According to the quenching theory this may indicate a decrease in the lifetime of the excited state, corresponding to an additional rate process that depopulates the excited state and/or the formation of a non-radioactive ground state between the fluorophore and the quencher resulting in a non-fluorescence emission[25],[26].
The Stern–Volmer theory explains the relationship between fluorescence intensity and the presence of a quencher. The data obtained with different concentrations of peptides were analysed independently of the quenching process. Thereby the bimolecular quenching constant (Kq) assigned to the efficiency of quenching and the binding or affinity constant (Ka) for the associated complex were calculated[27],[28]. […] To investigate the quenching process and to estimate Kq and Ka the data from the second and slower step were considered (Fig. 6b,c, respectively). To estimate the bimolecular quenching constant (Kq), the Stern–Volmer quenching constant (Ksv) was determined from the slopes of Io/I versus Q (quencher concentration) (Fig. 6b) and […], which corresponds approximately to the lifetime of a biomolecule fluorophore in the absence of a quenching agent. Therefore, Kq [M^−1 s^−1] for Pep-1 and Pep-2 were 13.3 × 10^12 ± 0.6 × 10^12 and 9.3 × 10^12 ± 1.8 × 10^12, respectively. According to the diffusion controlled quenching theory Kq values close to 1 × 10 ^10 M^−1 s^−1 are associated with a process involving dynamic quenchers, whereas values of Kq larger than the diffusive limit indicate binding interactions between the fluorophore and the quencher.
As the estimated Kq presented higher values than expected for dynamic quenching, we analysed the data applying static quenching theory to estimate the affinity constant Ka for the associated complex. The intercept of log ((Io-I)/I) versus log Q plot (Fig. 6c) is equal to the logarithm of Ka.. Thereby the intercept antilog calculation determines the Ka values for both peptides.
Fluorescence measurements were performed using a Cary eclipse fluorescence spectrophotometer coupled with a peltier temperature control (Agilent, USA). All assays were carried out in 1 mL cuvettes at 22 °C with excitation/emission slits at 20 nm each. The applied excitation wavelength was 290 nm and emission spectra were collected in the range of 300 up to 420 nm in increments of 1 nm. SaDHNA quenching experiments were performed with two peptides (Pep-1: YGSDGR and Pep-2: EGEYE, using a concentration range from 60 up to 1000 nM. SaDHNA at a concentration of 60 nM in 100 mM sodium phosphate buffer pH 6.0, 150 mM NaCl was applied and small volumes of the stock peptide solution were sequentially added to the cuvette for quenching analysis. Each SaDHNA-peptide assay was performed five times. As a control the fluorescence of all buffer and all peptide solutions were measured to correct the observed fluorescence accordingly. The quenching process was assessed by the Stern–Volmer theory.

[1] = system: SaDHNA WT (DHNA Coenzyme-A thioesterase); assay: Thioesterase activity of SaDHNA wild type (DTNB/TNB, 412 nm); type: biochemical, Staphylococcus aureus
Protocol: (§2) To obtain some initial information about SaDHNA thioesterase substrate specificity, two different substrates classified according to their CoA chain length and unsaturation degree were assessed. The longest acyl-CoA chain substrate contained eighteen acyl saturated chain stearoyl-CoA (C18:0), while the shortest chain contained four acyl chain crotonyl-CoA with one unsaturation (C4:1). Thioesterase activity was observed by the increase in free thiol-CoA thioester hydrolysis formation of the 2-nitro-5-thiobenzoate anion (TNB^2−), resulting from the reaction of the thiolate anion (RS^−) with Ellman’s reagent (DTNB^2−) and one mixed disulphide (R-S-TNB^−). […]
as §1, with “enzyme. […]” for “enzyme.”

SaDHNA D16A = assay: Thioesterase activity of SaDHNA D16A mutant (DTNB/TNB, 412 nm); type: biochemical, Staphylococcus aureus
Protocol: as §2
as §1, with “enzyme. […]” for “enzyme.”

SaDHNA E31N = assay: Thioesterase activity of SaDHNA E31N mutant (DTNB/TNB, 412 nm); type: biochemical, Staphylococcus aureus; conditions: stearoyl-CoA as substrate, vs background level
Protocol: as §2
as §1, with “enzyme. […]” for “enzyme.”

HpYbgC = conditions: in contrast to EcYbgC and HiYbgC; ref [38]; cited from earlier work
Source text: In fact, we observed the presence of a long tunnel associated with the binding site of the acyl moiety of the substrate for HpYbgC, which is ...

[2] = target: 1,4-dihydroxy-2-naphthoyl coenzyme A thioesterase from S. aureus (S. aureus); assay: DLS + SAXS; SaDHNA at 0.8 to 2.5 mg/ml in 100 mM sodium phosphate buffer pH 6.0, 150 mM NaCl, 10 °C; ab initio model with GASBOR
[3] = target: 1,4-dihydroxy-2-naphthoyl coenzyme A thioesterase from S. aureus (S. aureus); assay: crystal structure; space group P2_(1), four molecules in the asymmetric unit; crystals from 100 mM HEPES-Na+ pH 7.0, 1.0 M lithium sulphate, 293 K; 1.3 Å
[4] = target: 1,4-dihydroxy-2-naphthoyl coenzyme A thioesterase from S. aureus (S. aureus); assay: other fluorescence titration; quenching of the intrinsic tryptophan fluorescence of 60 nM SaDHNA by peptide added from 60 up to 1000 nM; 100 mM sodium phosphate buffer pH 6.0, 150 mM NaCl, 22 °C; excitation 290 nm; Stern-Volmer and static quenching analysis of the second, slower quenching step

Molecule | SaDHNA thioesterase activity in presence of peptide (in words) (SaDHNA thioesterase) | bimolecular quenching constant (Kq) (SaDHNA) | shift of SaDHNA emission spectra maximum (SaDHNA) | fluorescence intensity of SaDHNA (SaDHNA) | quenching mechanism (SaDHNA) | also measured
EGEYE [Pep-2] | no detectable activity | 9.3e+12 ± 1.8e+12 M⁻¹ s⁻¹ | slight blue shift of the emission | decrease in the fluorescence intensity | static mechanism | –
YGSDGR [Pep-1] | no detectable activity | 1.33e+13 ± 6e+11 M⁻¹ s⁻¹ | did not shift the emission spectra maximum | decrease in the fluorescence intensity | static mechanism | higher binding affinity to SaDHNA than Pep-2 (SaDHNA; ratio of Ka, Pep-1 vs Pep-2): 21 fold
CCCCCCCCCCCCCCCCCC(=O)SCCNC(=O)CCNC(=O)[C@H](O)C(C)(C)COP(=O)(O)OP(=O)(O)OC[C@H]1O[C@@H](n2cnc3c(N)ncnc32)[C@H](O)[C@@H]1OP(=O)(O)O [Stearoyl-CoA (C18:0), stearoyl-CoA] | – | – | – | – | – | higher specific activity toward the extended acyl CoA chain in comparison to the short chain crotonyl-CoA ([1]; stearoyl-CoA vs crotonyl-CoA): 474 fold; Enzymatic activity (specific activity) (SaDHNA D16A; D16A mutant, 10 μM enzyme, 50 mM HEPES-K+ pH 7.5, 1 mM DTNB, room temperature, 412 nm, 100 μM stearoyl-CoA, triplicates): 0.43 ± 0.02 nmol TNB/min/mg protein; decrease of hydrolysis rate of stearoyl-CoA by the D16A mutant (SaDHNA D16A; D16A vs WT, stearoyl-CoA as substrate): 300 fold; activity of E31N mutant toward stearoyl-CoA (in words) (SaDHNA E31N): no activity was detected above the background level; activity of HpYbgC towards long acyl chains (HpYbgC): more active
C/C=C/C(=O)SCCNC(=O)CCNC(=O)[C@H](O)C(C)(C)COP(=O)(O)OP(=O)(O)OC[C@H]1O[C@@H](n2cnc3c(N)ncnc32)[C@H](O)[C@@H]1OP(=O)(O)O [Crotonyl-CoA (C4:1), crotonyl-CoA] | – | – | – | – | – | Enzymatic activity (specific activity) ([1]; 10 μM enzyme, 50 mM HEPES-K+ pH 7.5, 1 mM DTNB, room temperature, 200 μl, absorbance 412 nm, 100 μM stearoyl-CoA or 1 mM crotonyl-CoA as substrate, triplicates): 0.27 ± 0.002 nmol TNB/min/mg protein
1,4-dihydroxy-2-naphthoyl coenzyme A thioesterase from S. aureus | – | – | – | – | – | stoichiometry N [2]: 4; stoichiometry N [3]: 4
EGEYE [Pep-2] | – | – | – | – | – | Kq (bimolecular quenching constant) [4]: 9.3e+12 M⁻¹ s⁻¹
